Legend:
[1] = system: primary rat hepatocyte cells; experiment: FTMS of extracts of primary rat hepatocytes treated with lovastatin; type: cell-based; conditions: lovastatin 0.03 to 30 μM for 4 hours, normalized against untreated
Method: A male Sprague-Dawley rat was anesthetized by administration of sodium pentobarbitol by at 50 mg/kg body mass be intraperitoneal injection. In situ perfusion of the liver was performed as follows. The abdomen of the animal was opened, the portal vein was cannulated, and the liver perfused with WOSH solution (149 mM NaCl, 9.2 mM Na HEPES, 1.7 mM fructose, 0.5 mM EGTA, 10 U/ml heparin, pH 7.5) at a flow rate of 30 ml/min for 6 minutes. To digest the liver, DSC solution (6.7 mM KCl, 143 mM NaCl, 9.2 mM Na HEPES, 5 mM CaCl2-2H2O, 1.7 mM fructose, 0.2% BSA, 100 U/ml collagenase Type I, 80 U/ml, 160 BAEE/ml trypsin inhibitor, pH 7.5) was perfused through the liver at a flow rate of 30 ml/min for 6 minutes at a temperature of 37° C. After digestion, cells were dispersed in a solution of DMEM- (DMEM containing 2mM GlutMax-1, 0.2% BSA, 5% FBS, 12 nM insulin, 1.2 μM hydrocortisone) to stop the digestion process. The crude cell suspension was filtered through three layers of stainless steel mesh with pore sizes of 250, 106, and 75 um respectively. Filtered cells were centrifuged at 50×g for two minutes and the supernatant discarded. […]
All measurements were carried out on a Bruker APEX II FTMS equipped with a 7.0 Tesla magnet. […] The accurate mass data was then analyzed using Tcl/Tk routines, which serially search the mass spectra from each well for chemical composition of metabolic products. […]

[2] = HICS-FTMS of plasma from rats treated by oral gavage; type: in vivo; conditions: rat plasma, 100 mg/kg daily by oral gavage for one week, versus untreated rats
Method: Three rats were treated daily with 100 mg/kg of 6-(6-hydroxy-5,5-dimethylhexyloxy)-2,2-dimethyl-hexan-1-ol by oral gavage, over the course of one week. 6-(6-hydroxy-5,5-dimethylhexyloxy)-2,2-dimethyl-hexon-1-ol increases HDL-cholesterol and improves glucose utilization in experimental rats (see U.S. application Ser. No. 09/540,738 , filed Mar. 31, 2000). At the end of the week, blood was drawn from each of the three rats, as well as from three control (untreated) rats. The blood was allowed to coagulate, and the plasma was prepared for FTMS by adding a water and methanol solution (49:49:2, water:methanol:acetic acid v:v:v) each of the plasma preparations. The mixture was chilled to precipitate the proteins to the bottom of the tube. Each tube was centrifuged, the supernatant decanted and the sample desalted by adding approximately 100 mg of DOWEX ion exchange resin to each vial and incubating the sample with the resin for approximately 10 minutes. The sample was then centrifuged and the supernatant removed. This solution was then introduced to the FT mass spectrometer.

[3] = experimental rats; see U.S. application Ser. No. 09/540,738; cited from earlier work

Compound | relative intensity of FTMS peak at molecular mass 85.02815 [1] | relative intensity of FTMS peak at molecular mass 85.64405 [1] | intensity of FTMS peak of molecular mass approximately 766.4 Daltons [2] | intensity of FTMS peak of molecular mass approximately 766.8 Daltons [2] | HDL-cholesterol [3] | glucose utilization [3]
CC[C@H](C)C(=O)O[C@H]1C[C@@H](C)C=C2C=C[C@H](C)[C@H](CC[C@@H]3C[C@@H](O)CC(=O)O3)[C@H]21 [lovastatin] | decreasing trend | increasing trend | – | – | – | –
CC(C)(CO)CCCCOCCCCC(C)(C)CO [6-(6-hydroxy-5,5-dimethylhexyloxy)-2,2-dimethyl-hexan-1-ol] | – | – | reproducibly higher intensities | reproducibly higher intensities | increases | improves
